{"source": "paper PMC5996983", "about": "(Environmental science & technology, 2017)", "key": {"[1]": {"tested_on": "embryonic zebrafish (Danio rerio)", "experiment": "Embryonic zebrafish developmental toxicity bioassay", "conditions": "for developmental toxicity to embryonic zebrafish: single compound standards, nominal 0.01 – 60 µM, exposure 6–120 hpf; for relative order of mean EC50: single standards, 120 hpf"}, "[2]": {"tested_on": "alkene monooxygenase", "experiment": "Inhibition of PHE transformation in ELW1 by 1-octyne", "assay_type": "cell-based, Mycobacterium sp. strain ELW1", "conditions": "~7 µmol 1-octyne in the aqueous media"}, "[3]": {"tested_on": "Mycobacterium sp. strain ELW1", "experiment": "PHE transformation by ELW1, resting cell tests"}, "[4]": {"tested_on": "Mycobacterium sp. A1-PYR", "conditions": "cited from earlier work"}, "[5]": {"conditions": "cited from earlier work"}, "[6]": {"tested_on": "Mycobacterium sp. strains PYRGCK, JS19b1, czh-3, czh-117", "conditions": "cited from earlier work"}, "[7]": {"conditions": "96-well plates ref 64; cited from earlier work"}, "[8]": {"tested_on": "Pasteurella spp.", "conditions": "cited from earlier work"}, "[9]": {"tested_on": "Mycobacterium sp. PYR-1", "conditions": "cited from earlier work"}}}
{"smiles": "O[C@@H]1c2ccccc2-c2ccccc2[C@H]1O", "note": "(relative stereo) [trans-9,10-OHPHE, trans-9,10-dihydroxy-9,10-dihydrophenanthrene]", "values": [{"measurement": "developmental toxicity to embryonic zebrafish", "setting": "[1]", "result": "not toxic"}]}
{"smiles": "Oc1cc2c(O)cccc2c2ccccc12", "note": "[1,9-OHPHE, 1,9-dihydroxyphenanthrene]", "values": [{"measurement": "developmental toxicity to embryonic zebrafish", "setting": "[1]", "result": "toxic"}, {"measurement": "relative order of mean EC50", "setting": "[1]", "result": "most toxic"}]}
{"smiles": "Oc1cccc2c1ccc1ccccc12", "note": "[1-OHPHE, 1-hydroxyphenanthrene]", "values": [{"measurement": "developmental toxicity to embryonic zebrafish", "setting": "[1]", "result": "toxic"}, {"measurement": "relative order of mean EC50", "setting": "[1]", "result": "least toxic"}]}
{"smiles": "C#CCCCCCC", "note": "[1-Octyne, 1-octyne]", "values": [{"measurement": "inhibition of PHE degradation", "setting": "[2]", "result": "effectively, but not completely, inhibited"}]}
{"smiles": "Oc1ccc2ccc3ccccc3c2c1", "note": "[3-OHPHE, 3-hydroxyphenanthrene]", "values": [{"measurement": "developmental toxicity to embryonic zebrafish", "setting": "[1]", "result": "toxic"}]}
{"smiles": "Oc1cccc2ccc3ccccc3c12", "note": "[4-OHPHE, 4-hydroxyphenanthrene]", "values": [{"measurement": "developmental toxicity to embryonic zebrafish", "setting": "[1]", "result": "toxic"}]}
{"smiles": "Oc1cc2ccccc2c2ccccc12", "note": "[9-OHPHE, 9-hydroxyphenanthrene]", "values": [{"measurement": "developmental toxicity to embryonic zebrafish", "setting": "[1]", "result": "toxic"}]}
{"smiles": "c1ccc2c(c1)ccc1ccccc12", "note": "[PHE, phenanthrene]", "values": [{"measurement": "first-order PHE transformation rate, kPHE", "setting": "[3]; 1-octyne controls", "result": "0.015 to 0.10", "unit": "h⁻¹"}, {"measurement": "half-life, t1/2", "setting": "[3]; 1-octyne controls", "result": "7.0 to 47", "unit": "h"}, {"measurement": "half-life, t1/2", "setting": "[3]; PHE-exposed cells", "result": "1.4 to 4.3", "unit": "h"}, {"measurement": "zero-order transformation rate", "setting": "[4]", "result": -0.019, "unit": "µmol/h"}, {"measurement": "water solubility", "setting": "[5]", "result": "~ 7 µM"}, {"measurement": "zero-order transformation rate", "setting": "[6]", "result": "−0.0020 to −0.019", "unit": "µmol hr^−1"}, {"measurement": "sorptive losses in test system", "setting": "[7]", "result": "less than 10%"}, {"measurement": "non-normalized first-order rate of PHE transformation", "setting": "[8]", "result": -0.0005, "unit": "h⁻¹"}, {"measurement": "non-normalized first-order rate of PHE transformation", "setting": "[9]", "result": -0.0015, "unit": "h⁻¹"}]}
